≈ marks a conversion by molar mass, not a printed value. Entries after “also recorded” stand apart in the source; their conditions may differ.
Tests used:
[1] = test system: T-cells; assay: in vitro cytotoxicity test (MTT assay); type: cell-based; conditions: compared with cynarin, FIG. 5
Protocol: The amount of survival T-cells is measured by MTT assay. […] Conversely, they are less cytotoxic than cynarin.

[2] = test system: T-cells; assay: in vitro efficacy test: production of IL-2 from T-cells; type: cell-based; conditions: compared with cynarin; FIG. 6
Description: The production of IL-2 is reduced when the activation of T-cells is interfered.

[3] = target: CD28 of T-cells and CD80 of B-cells (Homo sapiens, UniProt P10747); assay: unbinding force test; type: binding; conditions: in the presence of Cyn-1324; about 41.9 pN in its absence; FIG. 7
Description: In the absence of Cyn-1324, the average unbinding force is about 41.9 pN. Conversely, in the presence of Cyn-1324, the average unbinding force is reduced to about 29.1 pN. The results shown in FIG. 7 provide the physical evidence that Cyn-1324 repulses the binding between CD28 and CD80, thus blocking the signal 2 pathway induced by the interaction of CD28 and co-stimulatory molecules such as CD80 or CD86.

[4] = test system: IL-2 expressed from signal 2 pathway of T-cells; assay: in vitro IC50 measurement (reduction of IL-2); type: cell-based; conditions: T-cell; dosage causing 50% reduction of IL-2; FIG. 8; read-out: IC50 on blocking T-cell immune response
Description: The IC50 represents the dosage which causes 50% reduction of IL-2 expressed from signal 2 pathway of T-cells.

[5] = test system: OVA-sensitized mice; assay: in vivo animal test of immuno-suppressive effect (serum antibodies via ELISA); conditions: OVA-sensitized BALB/c mice, serum on 14th day, FIG. 9
Protocol: The four BALB/c mice groups are treated with phosphate-buffered saline (PBS), ovalbulmin (OVA), OVA/Cyn-1324 or OVA/cyclosporin A (CSA), respectively. CSA is used currently in clinics for suppressing immune response. The 14th-day from the treatments, the serum is collected, and the antibodies such as IgG and IgE are analyzed via ELISA. […] Accordingly, Cyn-1324 is effective for suppressing immune response.

[6] = mouse, in vivo
Protocol: One of the four mice groups is treated with PBS, and three of the four groups are sensitized with OVA.

[7] = single dose toxicity test; conditions: mouse, in vivo, mice, read-out: maximum tolerance dose (MTD)
[8] = test system: OVA-sensitized mice; conditions: mouse, in vivo

Chain of CD28 of T-cells and CD80 of B-cells (P10747 19-220): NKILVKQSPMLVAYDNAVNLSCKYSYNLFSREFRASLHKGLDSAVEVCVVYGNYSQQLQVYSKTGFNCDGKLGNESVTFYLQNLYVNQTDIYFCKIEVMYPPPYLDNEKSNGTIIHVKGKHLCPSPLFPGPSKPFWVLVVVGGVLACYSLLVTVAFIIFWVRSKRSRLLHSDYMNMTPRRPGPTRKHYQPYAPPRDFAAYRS

CC(C)CNC(=O)[C@@]1(O)C[C@@H](O)[C@@H]2OC3(CCCCC3)O[C@@H]2C1 [Cyn-1324, (3aR,5R,7R,7aS)-5,7-dihydroxy-N-(2-methylpropyl)hexahydrospiro[1,3-benzodioxole-2,1′-cyclohexane]-5-carboxamide]
cell survival rates of T-cells (cytotoxicity) [1]: higher than cynarin; also recorded: lowest cytotoxicity
efficacy to suppress T-cell activation (production of IL-2) [2]: higher (or equal) efficacy; also recorded: high efficacy
average unbinding force [3]: about 29.1 pN
IC50 [4]: ~20 µg/mL (≈ 61.1 µM)
IgE decrease [5]: about 23%
IgG decrease [5]: about 30%
body weight variation versus time [6]: steadily increased
MTD [7]: ~400 mg/kg
side effect: body swollen [8]: does not cause the similar side effect
